According to PubChem BioAssay (NCI):
Where “and” joins values, the source holds several entries; their conditions need not be identical. Equal entries are not always repeated.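 Values below derive from 48-hour exposures of cells grown in 96-well plates, with endpoints linearly interpolated between the two concentrations bracketing the appropriate inhibition level. Abbreviation: GI50, concentration required for 50% inhibition of growth. TGI marks complete inhibition of growth.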

Columns and labels:
Assay in all cases: NCI anticancer screen, dose series, 48 h
SK-MEL-28 melanoma = system: SK-MEL-28 melanoma
UACC-257 melanoma = system: UACC-257 melanoma
HOP-92 NSCLC = system: HOP-92 NSCLC
786-0 renal = system: 786-0 renal
SW-620 colon = system: SW-620 colon
NCI-H522 lung = system: NCI-H522 lung
UACC-62 melanoma = system: UACC-62 melanoma
MOLT-4 leukemia = system: MOLT-4 leukemia
NCI-H23 lung = system: NCI-H23 lung
M14 melanoma = system: M14 melanoma
U251 CNS = system: U251 CNS
LOX IMVI melanoma = system: LOX IMVI melanoma
MDA-MB-231 breast = system: MDA-MB-231 breast
CCRF-CEM leukemia = system: CCRF-CEM leukemia
HCT-116 colon = system: HCT-116 colon
EKVX NSCLC = system: EKVX NSCLC
HCT-15 colon = system: HCT-15 colon
SF-295 CNS = system: SF-295 CNS
DU-145 prostate = system: DU-145 prostate
KM12 colon = system: KM12 colon
UO-31 renal = system: UO-31 renal
MDA-MB-435 = system: MDA-MB-435
NCI-H460 lung = system: NCI-H460 lung
BT-549 breast = system: BT-549 breast
SF-268 CNS = system: SF-268 CNS
NCI/ADR-RES ovarian = system: NCI/ADR-RES ovarian
A549 NSCLC = system: A549 NSCLC
SN12C renal = system: SN12C renal
HL-60(TB) leukemia = system: HL-60(TB) leukemia
OVCAR-4 ovarian = system: OVCAR-4 ovarian
IGROV1 ovarian = system: IGROV1 ovarian
RPMI-8226 leukemia = system: RPMI-8226 leukemia
OVCAR-3 ovarian = system: OVCAR-3 ovarian
SR leukemia = system: SR leukemia
ACHN renal = system: ACHN renal
OVCAR-8 ovarian = system: OVCAR-8 ovarian
HS 578T breast = system: HS 578T breast
SK-MEL-5 melanoma = system: SK-MEL-5 melanoma
COLO 205 colon = system: COLO 205 colon
HCC-2998 colon = system: HCC-2998 colon
K-562 leukemia = system: K-562 leukemia
SK-OV-3 ovarian = system: SK-OV-3 ovarian
MCF7 breast = system: MCF7 breast
SK-MEL-2 melanoma = system: SK-MEL-2 melanoma
SNB-19 CNS = system: SNB-19 CNS
NCI-H226 lung = system: NCI-H226 lung
PC-3 prostate = system: PC-3 prostate
SNB-75 CNS = system: SNB-75 CNS
SF-539 CNS = system: SF-539 CNS
HOP-62 NSCLC = system: HOP-62 NSCLC
TK-10 renal = system: TK-10 renal
OVCAR-5 ovarian = system: OVCAR-5 ovarian
A498 renal = system: A498 renal
RXF 393 renal = system: RXF 393 renal
HT29 colon = system: HT29 colon

With `COC(=O)C1CCC(NC(=O)c2csc([C@@H](C[C@H](C(C)C)N(C)C(=O)[C@@H](NC(=O)[C@H]3CCCCN3C)C(C)C)OC(C)=O)n2)CC1` (some centres not stated) the GI50 (SK-MEL-28 melanoma) was over 33.3 µM, the TGI (SK-MEL-28 melanoma) was over 33.3 µM and the GI50 (UACC-257 melanoma) was over 33.3 µM. The TGI (UACC-257 melanoma) was over 33.3 µM, the GI50 (HOP-92 NSCLC) was 0.0153 µM and the TGI (HOP-92 NSCLC) was 6.73 µM. For the same compound, the GI50 (786-0 renal) was 0.00742 µM and 0.014 µM, the TGI (786-0 renal) was over 33.3 µM and the GI50 (SW-620 colon) was 0.00453 µM and 0.0149 µM. The TGI (SW-620 colon) was over 33.3 µM, the GI50 (NCI-H522 lung) was 0.00138 µM and 0.00333 µM and the TGI (NCI-H522 lung) was 0.0059 µM and 0.0107 µM. The GI50 (UACC-62 melanoma) was 0.00382 µM and 0.0157 µM, the TGI (UACC-62 melanoma) was over 33.3 µM and the GI50 (MOLT-4 leukemia) was 0.00574 µM and 0.0149 µM. The TGI (MOLT-4 leukemia) was over 33.3 µM, the GI50 (NCI-H23 lung) was 0.0343 µM and 0.0217 µM and the TGI (NCI-H23 lung) was over 33.3 µM. The GI50 (M14 melanoma) was 0.0057 µM and 0.00552 µM, the TGI (M14 melanoma) was 0.0163 µM and the GI50 (U251 CNS) was 0.00499 µM and 0.0154 µM. The TGI (U251 CNS) was over 33.3 µM, the GI50 (LOX IMVI melanoma) was 0.00644 µM and 0.0164 µM and the TGI (LOX IMVI melanoma) was over 33.3 µM. For the same compound, the GI50 (MDA-MB-231 breast) was 0.00863 µM and 0.024 µM, the GI50 (CCRF-CEM leukemia) was 0.00407 µM and 0.0107 µM and the TGI (CCRF-CEM leukemia) was over 33.3 µM. For the same compound, the GI50 (HCT-116 colon) was 0.00401 µM, the GI50 (EKVX NSCLC) was 0.0152 µM and 0.0385 µM and the TGI (EKVX NSCLC) was over 33.3 µM. For the same compound, the GI50 (HCT-15 colon) was 0.0185 µM and 0.0536 µM, the TGI (HCT-15 colon) was over 33.3 µM and the GI50 (SF-295 CNS) was 0.00423 µM and 0.0146 µM. The TGI (SF-295 CNS) was over 33.3 µM, the GI50 (DU-145 prostate) was 0.00406 µM and 0.00967 µM and the TGI (DU-145 prostate) was 0.0289 µM. For the same compound, the GI50 (KM12 colon) was 0.00498 µM and 0.014 µM, the TGI (KM12 colon) was over 33.3 µM and the GI50 (UO-31 renal) was 0.0684 µM and 0.303 µM. The TGI (UO-31 renal) was over 33.3 µM, the GI50 (MDA-MB-435) was 0.000404 µM and 0.00333 µM and the TGI (MDA-MB-435) was 0.00265 µM and 0.00857 µM. For the same compound, the GI50 (NCI-H460 lung) was 0.00372 µM and 0.012 µM, the TGI (NCI-H460 lung) was over 33.3 µM and the GI50 (BT-549 breast) was 0.0099 µM and 0.02 µM. The TGI (BT-549 breast) was 0.791 µM and 0.225 µM, the GI50 (SF-268 CNS) was 0.0092 µM and 0.0197 µM and the TGI (SF-268 CNS) was over 33.3 µM. For the same compound, the GI50 (NCI/ADR-RES ovarian) was 0.106 µM and 0.258 µM, the TGI (NCI/ADR-RES ovarian) was over 33.3 µM and the GI50 (A549 NSCLC) was 0.00859 µM and 0.021 µM. The TGI (A549 NSCLC) was over 33.3 µM, the GI50 (SN12C renal) was 0.00674 µM and 0.0225 µM and the TGI (SN12C renal) was over 33.3 µM. For the same compound, the GI50 (HL-60(TB) leukemia) was 0.003 µM and 0.00735 µM, the TGI (HL-60(TB) leukemia) was 0.0136 µM and 0.0181 µM and the TGI (OVCAR-4 ovarian) was over 33.3 µM. The GI50 (IGROV1 ovarian) was 0.0115 µM and 0.0305 µM, the TGI (IGROV1 ovarian) was over 33.3 µM and the GI50 (RPMI-8226 leukemia) was 0.00498 µM and 0.0149 µM. For the same compound, the TGI (RPMI-8226 leukemia) was over 33.3 µM, the GI50 (OVCAR-3 ovarian) was 0.00359 µM and 0.00935 µM and the TGI (OVCAR-3 ovarian) was 0.0294 µM. For the same compound, the GI50 (SR leukemia) was 0.00212 µM and 0.00333 µM, the TGI (SR leukemia) was over 33.3 µM and the GI50 (ACHN renal) was 0.279 µM. The TGI (ACHN renal) was over 33.3 µM, the GI50 (OVCAR-8 ovarian) was 0.0114 µM and 0.0266 µM and the TGI (OVCAR-8 ovarian) was over 33.3 µM. For the same compound, the GI50 (HS 578T breast) was 0.00429 µM and 0.0111 µM, the TGI (HS 578T breast) was over 33.3 µM and the GI50 (SK-MEL-5 melanoma) was 0.00326 µM and 0.0108 µM. The TGI (SK-MEL-5 melanoma) was 0.118 µM and 0.348 µM, the GI50 (COLO 205 colon) was 0.00359 µM and 0.0121 µM and the TGI (COLO 205 colon) was 0.0141 µM and 0.0784 µM. For the same compound, the GI50 (HCC-2998 colon) was 0.0325 µM and 0.0994 µM, the TGI (HCC-2998 colon) was over 33.3 µM and the GI50 (K-562 leukemia) was 0.00256 µM and 0.00766 µM. The TGI (K-562 leukemia) was over 33.3 µM, the GI50 (SK-OV-3 ovarian) was 0.0045 µM and 0.0148 µM and the TGI (SK-OV-3 ovarian) was over 33.3 µM. The GI50 (MCF7 breast) was 0.00309 µM and 0.0121 µM, the TGI (MCF7 breast) was over 33.3 µM and the GI50 (SK-MEL-2 melanoma) was 0.00762 µM and 0.0109 µM. For the same compound, the TGI (SK-MEL-2 melanoma) was over 33.3 µM, the GI50 (SNB-19 CNS) was 0.0047 µM and 0.0152 µM and the TGI (SNB-19 CNS) was over 33.3 µM. The GI50 (NCI-H226 lung) was 0.0126 µM and 0.0317 µM, the TGI (NCI-H226 lung) was over 33.3 µM and the GI50 (PC-3 prostate) was 0.0084 µM and 0.0168 µM. For the same compound, the TGI (PC-3 prostate) was over 33.3 µM, the GI50 (SNB-75 CNS) was 0.00307 µM and 0.0119 µM and the TGI (SNB-75 CNS) was over 33.3 µM. The GI50 (SF-539 CNS) was 0.00394 µM and 0.0127 µM, the TGI (SF-539 CNS) was 0.0637 µM and 0.151 µM and the GI50 (HOP-62 NSCLC) was 0.00519 µM and 0.016 µM. For the same compound, the TGI (HOP-62 NSCLC) was over 33.3 µM, the GI50 (TK-10 renal) was 1.05 µM and the TGI (TK-10 renal) was over 33.3 µM. The GI50 (OVCAR-5 ovarian) was 0.0112 µM and 0.0212 µM, the TGI (OVCAR-5 ovarian) was over 33.3 µM and the GI50 (A498 renal) was 0.0068 µM and 0.0126 µM. The TGI (A498 renal) was 0.127 µM, the GI50 (RXF 393 renal) was 0.00923 µM and the TGI (RXF 393 renal) was over 33.3 µM. For the same compound, the GI50 (HT29 colon) was 0.00343 µM and 0.0104 µM and the TGI (HT29 colon) was 4.2 µM.
